In paper PMC10120312 (Cell Insight, 2022):

Experiments:
[1] = tested on: EV-A71; assay: CPE assay against EV-A71 in RD cells; type: cell-based, Enterovirus 71 (EV-A71); conditions: Enterovirus A, EVA71, RD, read-out: EC50 against EV-A71
[2] = tested on: EV-A71; assay: Viral binding assay; type: cell-based; conditions: qRT-PCR; PTC-209HBr 3.2 μM, enviroxime 0.32 μM, pirodavir 0.64 μM; MOI 30
[3] = tested on: EV-A71; assay: Viral entry assay; type: cell-based; conditions: qRT-PCR; PTC-209HBr 3.2 μM, enviroxime 0.32 μM, pirodavir 0.64 μM; MOI 30
[4] = molecular target: EV-A71 VP1 (Human enterovirus 71, UniProt Q66478); type: binding; conditions: MST, 500 nM VP1-EGFP
[5] = molecular target: VP1 and hSCARB2 (Human enterovirus 71, UniProt Q66478); assay: IF assay of colocalization between VP1 and hSCARB2; type: cell-based; conditions: RD cells, vs untreated cells
Sequence of VP1 and hSCARB2 (Q66478 324-565): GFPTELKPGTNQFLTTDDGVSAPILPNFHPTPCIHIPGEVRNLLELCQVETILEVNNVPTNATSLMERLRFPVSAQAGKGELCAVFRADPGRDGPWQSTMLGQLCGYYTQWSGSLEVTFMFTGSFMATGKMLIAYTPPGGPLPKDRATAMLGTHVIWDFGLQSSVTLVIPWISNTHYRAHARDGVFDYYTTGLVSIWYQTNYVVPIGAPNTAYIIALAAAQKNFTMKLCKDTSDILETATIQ
Sequence of VP1 and hSCARB2 (Q66478 566-862): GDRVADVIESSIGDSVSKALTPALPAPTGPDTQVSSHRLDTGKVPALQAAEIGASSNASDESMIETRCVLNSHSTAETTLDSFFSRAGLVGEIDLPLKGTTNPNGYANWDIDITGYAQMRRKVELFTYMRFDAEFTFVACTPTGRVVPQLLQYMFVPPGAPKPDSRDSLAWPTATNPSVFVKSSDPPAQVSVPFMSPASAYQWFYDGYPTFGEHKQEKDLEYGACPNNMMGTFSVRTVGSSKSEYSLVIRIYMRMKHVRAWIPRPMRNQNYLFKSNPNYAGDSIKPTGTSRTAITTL
Sequence of VP1 and hSCARB2 (Q66478 70-323): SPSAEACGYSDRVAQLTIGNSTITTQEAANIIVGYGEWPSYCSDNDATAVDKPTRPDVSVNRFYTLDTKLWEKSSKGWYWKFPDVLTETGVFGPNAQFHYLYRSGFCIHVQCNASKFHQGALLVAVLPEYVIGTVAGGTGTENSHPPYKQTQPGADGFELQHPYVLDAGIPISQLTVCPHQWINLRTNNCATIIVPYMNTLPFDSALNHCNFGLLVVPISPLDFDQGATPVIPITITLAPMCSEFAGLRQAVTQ
Sequence of VP1 and hSCARB2 (Q66478 2-69): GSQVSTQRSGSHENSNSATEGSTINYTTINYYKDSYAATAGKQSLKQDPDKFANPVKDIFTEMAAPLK

Sequence of EV-A71 VP1 (Q66478 566-862): as the sequence (Q66478 566-862) above

Row | EC50 [1] [µM] | Inhibition of EV-A71 binding (RNA level) [2] | Kd VP1 [4] | Colocalization between VP1 and hSCARB2 in EV-A71-infected cells [5] | Compound | Inhibition of EV-A71 entry (RNA level) [3]
1 | 5.25 | dramatically inhibit | – | – | CCOC(=O)c1ccc(OCCC2CCN(c3ccc(C)nn3)CC2)cc1 [Pirodavir, pirodavir] | but not entry
2 | 0.178 | little inhibited | low binding affinity | decreased | CC(C)S(=O)(=O)n1c(N)nc2ccc(/C(=N/O)c3ccccc3)cc21 [Enviroxime, enviroxime] | little inhibited
